For 19 compounds, IC50 and inhibition results are on record in patent US9695154B2, “Heteroaryl inhibitors of sumo activating enzyme” (MILLENNIUM PHARMACEUTICALS, INC., priority 2013, dated 2017).

Structures are written as SMILES.

In the assay the target is T1, recombinant human SAE enzyme (Homo sapiens, UniProt Q9UBT2).
T1 sequence (Q9UBT2 1-640): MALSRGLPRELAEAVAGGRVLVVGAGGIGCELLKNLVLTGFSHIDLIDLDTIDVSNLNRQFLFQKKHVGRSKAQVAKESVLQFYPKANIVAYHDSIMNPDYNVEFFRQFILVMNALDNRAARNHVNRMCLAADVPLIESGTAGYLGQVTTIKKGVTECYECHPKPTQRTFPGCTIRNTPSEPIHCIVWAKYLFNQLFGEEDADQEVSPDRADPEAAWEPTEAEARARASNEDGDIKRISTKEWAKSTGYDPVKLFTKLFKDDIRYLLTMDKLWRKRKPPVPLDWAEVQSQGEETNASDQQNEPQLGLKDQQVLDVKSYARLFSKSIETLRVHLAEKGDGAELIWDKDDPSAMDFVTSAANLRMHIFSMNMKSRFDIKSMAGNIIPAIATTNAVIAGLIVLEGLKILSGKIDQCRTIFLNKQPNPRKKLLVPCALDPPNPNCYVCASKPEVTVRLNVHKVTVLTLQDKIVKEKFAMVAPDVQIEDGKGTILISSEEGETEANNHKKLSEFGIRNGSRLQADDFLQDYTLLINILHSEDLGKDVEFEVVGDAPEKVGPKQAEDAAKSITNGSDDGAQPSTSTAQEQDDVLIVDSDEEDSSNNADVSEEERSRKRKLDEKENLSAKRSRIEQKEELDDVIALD
T1 sequence (Q9UBE0 1-346 partner): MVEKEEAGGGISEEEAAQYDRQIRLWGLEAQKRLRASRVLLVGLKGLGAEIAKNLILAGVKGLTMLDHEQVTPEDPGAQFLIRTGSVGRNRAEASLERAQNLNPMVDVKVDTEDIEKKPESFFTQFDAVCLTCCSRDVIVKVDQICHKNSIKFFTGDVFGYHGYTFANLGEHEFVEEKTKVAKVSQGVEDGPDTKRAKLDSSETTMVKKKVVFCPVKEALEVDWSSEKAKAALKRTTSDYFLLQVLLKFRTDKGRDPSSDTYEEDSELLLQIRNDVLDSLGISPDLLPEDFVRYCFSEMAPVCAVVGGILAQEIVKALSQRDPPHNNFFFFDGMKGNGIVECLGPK
The assay can be described thus: SAE HTRF Enzyme Assay. It is filed as biochemical. As to conditions: for IC50: class symbols A-C; for inhibition at 0.111 µM: compound concentration 0.111 μM, read-out: Percent Inhibition. The procedure, abridged: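 SAE 0.11 nM; ATP 0.5 μM; Sumo-Flag 0.125 μM; Ubc9-GST 0.01 μM; 250 μM GSH, 5 mM MgCl2, pH 7.5. 105 min, 24° C. EDTA/KF stop plus Eu/APC antibodies, 2 h, TR-FRET. % inhibition or IC50.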

The IC50 is the midpoint of a concentration-inhibition curve. As a reminder, the inhibition is the change of the read-out against control, counted positive when it falls.

Consider `NS(=O)(=O)OC[C@H]1C[C@@H](Nc2ncncc2C(=O)c2ccn(Cc3ccccc3)n2)[C@H](O)[C@@H]1O` [Compound I-142, [(1R,2R,3S,4R)-4-({5-[(1-Benzyl-1H-pyrazol-3-yl)carbonyl]pyrimidin-4-yl}amino)-2,3-dihydroxycyclopentyl]methyl sulfamate], for which the 50% inhibitory concentration (IC50) is less than 10 nM and the inhibition at 0.111 µM stood at 99%.
As to `NS(=O)(=O)OC[C@H]1C[C@@H](Nc2ncncc2C(=O)c2ccn(Cc3ccc(F)c(Br)c3)c2)[C@@H](F)[C@@H]1O` [Compound I-143, {(1R,2R,3R,4R)-4-[(5-{[1-(3-bromo-4-fluorobenzyl)-1H-pyrrol-3-yl]carbonyl}pyrimidin-4-yl)amino]-3-fluoro-2-hydroxycyclopentyl}methyl sulfamate], the concentration for half-maximal inhibition (IC50) was less than 10 nM and the inhibition at 0.111 µM came out at 99%.
Regarding `NS(=O)(=O)OC[C@H]1C[C@@H](Nc2ncncc2C(=O)c2ccn(Cc3ccc4nccn4c3)n2)C[C@@H]1O` [Compound I-144, {(1R,2S,4R)-2-hydroxy-4-[(5-{[1-(imidazo[1,2-a]pyridin-6-ylmethyl)-1H-pyrazol-3-yl]carbonyl}pyrimidin-4-yl)amino]cyclopentyl}methyl sulfamate], the 50% inhibitory concentration (IC50) is less than 10 nM and the inhibition at 0.111 µM worked out at 97%.
Regarding `NS(=O)(=O)OC[C@H]1C[C@@H](Nc2ncncc2C(=O)c2ccn(CC3=CCCOC3)n2)C[C@@H]1O` [Compound I-145, {(1R,2S,4R)-4-[(5-{[1-(5,6-dihydro-2H-pyran-3-ylmethyl)-1H-pyrazol-3-yl]carbonyl}pyrimidin-4-yl)amino]-2-hydroxycyclopentyl}methyl sulfamate], the IC50 fell in the range of 10 to 100 nM and the inhibition at 0.111 µM stood at 65%.
The corresponding values for `NS(=O)(=O)OC[C@H]1C[C@@H](Nc2ncncc2C(=O)c2ccn(Cc3ccc(Cl)cc3F)n2)[C@H](O)[C@@H]1O` [Compound I-146, {(1R,2R,3S,4R)-4-[(5-{[1-(4-chloro-2-fluorobenzyl)-1H-pyrazol-3-yl]carbonyl}pyrimidin-4-yl)amino]-2,3-dihydroxycyclopentyl}methyl sulfamate] are less than 10 nM and 99%.
Turning to `NS(=O)(=O)OC[C@H]1C[C@@H](Nc2ncncc2C(=O)c2ccn(Cc3cccc(Cl)c3)c2)[C@@H](F)[C@@H]1O` [Compound I-147, {(1R,2R,3R,4R)-4-[(5-{[1-(3-chlorobenzyl)-1H-pyrrol-3-yl]carbonyl}pyrimidin-4-yl)amino]-3-fluoro-2-hydroxycyclopentyl}methyl sulfamate], the IC50 was less than 10 nM and the inhibition at 0.111 µM is more than 99%.
On to `NS(=O)(=O)OC[C@H]1C[C@@H](Nc2ncncc2C(=O)c2cc(Cl)n(Cc3cc(C(F)(F)F)on3)c2)[C@@H](F)[C@@H]1O` [Compound I-148, [(1R,2R,3R,4R)-4-({5-[(5-chloro-1-{[5-(trifluoromethyl)isoxazol-3-yl]methyl}-1H-pyrrol-3-yl)carbonyl]pyrimidin-4-yl}amino)-3-fluoro-2-hydroxycyclopentyl]methyl sulfamate], for which the half-inhibitory concentration (IC50) is 10 to 100 nM and the inhibition at 0.111 µM amounted to 85%.
With `Cc1cn(Cc2cccc(Br)c2)cc1C(=O)c1cncnc1N[C@@H]1C[C@H](COS(N)(=O)=O)[C@@H](O)[C@@H]1F` [Compound I-149, {(1R,2R,3R,4R)-4-[(5-{[1-(3-bromobenzyl)-4-methyl-1H-pyrrol-3-yl]carbonyl}pyrimidin-4-yl)amino]-3-fluoro-2-hydroxycyclopentyl}methyl sulfamate], the 50% inhibitory concentration (IC50) was 10 to 100 nM and the inhibition at 0.111 µM turned out to be 85%.
Turning to `NS(=O)(=O)OC[C@H]1C[C@@H](Nc2ncncc2C(=O)c2ccn(Cc3ccccn3)n2)[C@H](O)[C@@H]1O` [Compound I-150, {(1R,2R,3S,4R)-2,3-dihydroxy-4-[(5-{[1-(pyridin-2-ylmethyl)-1H-pyrazol-3-yl]carbonyl}pyrimidin-4-yl)amino]cyclopentyl}methyl sulfamate], the IC50 is less than 10 nM and the inhibition at 0.111 µM was found to be 98%.
Regarding `COC(C)(C)C#CCn1ccc(C(=O)c2cncnc2N[C@@H]2C[C@H](COS(N)(=O)=O)[C@@H](O)C2)n1` [Compound I-151, {(1R,2S,4R)-2-hydroxy-4-[(5-{[1-(4-methoxy-4-methylpent-2-yn-1-yl)-1H-pyrazol-3-yl]carbonyl}pyrimidin-4-yl)amino]cyclopentyl}methyl sulfamate], the IC50 lay in the range of 10 to 100 nM and the inhibition at 0.111 µM stood at 54%.
On to `NS(=O)(=O)OC[C@H]1C[C@@H](Nc2ncncc2C(=O)c2ccn(Cc3ccc(Cl)c(OC(F)(F)F)c3)n2)C[C@@H]1O` [Compound I-152, [(1R,2S,4R)-4-{[5-({1-[4-Chloro-3-(trifluoromethoxy)benzyl]-1H-pyrazol-3-yl}carbonyl)pyrimidin-4-yl]amino}-2-hydroxycyclopentyl]methyl sulfamate], for which the 50% inhibitory concentration (IC50) was less than 10 nM and the inhibition at 0.111 µM is 94%.
For `CC(C)CC#CCn1ccc(C(=O)c2cncnc2N[C@@H]2C[C@H](COS(N)(=O)=O)[C@@H](O)C2)n1` [Compound I-153, {(1R,2S,4R)-2-hydroxy-4-[(5-{[1-(5-methylhex-2-yn-1-yl)-1H-pyrazol-3-yl]carbonyl}pyrimidin-4-yl)amino]cyclopentyl}methyl sulfamate], the IC50 fell in the range of 10 to 100 nM and the inhibition at 0.111 µM turned out to be 82%.
The corresponding values for `CC(C)(O)C#CCn1ccc(C(=O)c2cncnc2N[C@@H]2C[C@H](COS(N)(=O)=O)[C@@H](O)C2)n1` [Compound I-154, {(1R,2S,4R)-2-hydroxy-4-[(5-{[1-(4-hydroxy-4-methylpent-2-yn-1-yl)-1H-pyrazol-3-yl]carbonyl}pyrimidin-4-yl)amino]cyclopentyl}methyl sulfamate] are 100 to 1000 nM and 39%.
The corresponding values for `NS(=O)(=O)OC[C@H]1C[C@@H](Nc2ncncc2C(=O)c2ccn(Cc3cc(C(F)(F)F)cc(C(F)(F)F)c3)n2)[C@H](O)[C@@H]1O` [Compound I-155, [(1R,2R,3S,4R)-4-{[5-({1-[3,5-bis(trifluoromethyl)benzyl]-1H-pyrazol-3-yl}carbonyl)pyrimidin-4-yl]amino}-2,3-dihydroxycyclopentyl]methyl sulfamate] are less than 10 nM and 97%.
For `NS(=O)(=O)OC[C@H]1C[C@@H](Nc2ncncc2C(=O)c2ccn(Cc3ccc(Cl)c(C(F)(F)F)c3)n2)[C@@H](F)[C@@H]1O` [Compound I-156, [(1R,2R,3R,4R)-4-{[5-({1-[4-chloro-3-(trifluoromethyl)benzyl]-1H-pyrazol-3-yl}carbonyl)pyrimidin-4-yl]amino}-3-fluoro-2-hydroxycyclopentyl]methyl sulfamate], the IC50 lay within 10 to 100 nM and the inhibition at 0.111 µM was found to be 90%.
Consider `CN(c1ncncc1C(=O)c1ccn(Cc2cccc(Br)c2)n1)[C@@H]1C[C@H](COS(N)(=O)=O)[C@@H](O)C1` [Compound I-157, {(1R,2S,4R)-4-[(5-{[1-(3-Bromobenzyl)-1H-pyrazol-3-yl]carbonyl}pyrimidin-4-yl)(methyl)amino]-2-hydroxycyclopentyl}methyl sulfamate], for which the IC50 was in the range of 10 to 100 nM and the inhibition at 0.111 µM came to 67%.
The corresponding values for `NS(=O)(=O)OC[C@H]1C[C@@H](Nc2ncncc2C(=O)c2ccn(Cc3ccccc3)n2)C[C@@H]1O` [Compound I-158, [(1R,2S,4R)-4-({5-[(1-Benzyl-1H-pyrazol-3-yl)carbonyl]pyrimidin-4-yl}amino)-2-hydroxycyclopentyl]methyl sulfamate] are less than 10 nM and 95%.
The matching figures for `NS(=O)(=O)OC[C@H]1C[C@@H](Nc2ncncc2C(=O)c2ccn(Cc3ccc(Cl)c(Cl)c3)n2)[C@H](O)[C@@H]1O` [Compound I-159, {(1R,2R,3S,4R)-4-[(5-{[1-(3,4-dichlorobenzyl)-1H-pyrazol-3-yl]carbonyl}pyrimidin-4-yl)amino]-2,3-dihydroxycyclopentyl}methyl sulfamate]: less than 10 nM and 96%.
On to `NS(=O)(=O)OC[C@H]1C[C@@H](Nc2ncncc2C(=O)c2ccn(Cc3ccncc3)n2)[C@H](O)[C@@H]1O` [Compound I-160, {(1R,2R,3S,4R)-2,3-dihydroxy-4-[(5-{[1-(pyridin-4-ylmethyl)-1H-pyrazol-3-yl]carbonyl}pyrimidin-4-yl)amino]cyclopentyl}methyl sulfamate], for which the IC50 was in the range of 10 to 100 nM and the inhibition at 0.111 µM is 81%.
